Experimental data from paper PMC4208696 (Biophysical chemistry, 2014).
Where two headings read alike, the source gives them in different places.

How the values were obtained:
[1] = target: CaM1–148 (full-length calmodulin) (Homo sapiens, UniProt P0DP23); type: binding, mammalian; conditions: for ΔG (calcium-saturated): 10 mM CaCl2; for ΔG (calcium-saturated) / ΔG (apo): free energy corresponding to estimated Kd, 22 °C; for Fold Change = (Kd, Apo)/(Kd, Ca^2+): apo vs calcium-saturated; for abundance of the apo CaM-peptide complex: calculated, start of calcium titration, 6 μM CaM1–148 with 2 eq (12 μM) peptide
CaM1–80 (CaM N-domain) = CaM1–80 (CaM N-domain) (Homo sapiens, UniProt P0DP23); type: binding, mammalian; conditions: for ΔG (calcium-saturated): 10 mM CaCl2; for ΔG (calcium-saturated) / ΔG (apo): free energy corresponding to estimated Kd, 22 °C; for Fold Change = (Kd, Apo)/(Kd, Ca^2+): apo vs calcium-saturated; for abundance of the apo CaM-peptide complex: calculated, start of calcium titration, 6 μM CaM1–80 with 2 eq (12 μM) peptide
CaM76–148 (CaM C-domain) = CaM76–148 (CaM C-domain) (Homo sapiens, UniProt P0DP23); type: binding, mammalian; conditions: for ΔG (calcium-saturated): 10 mM CaCl2; for ΔG (calcium-saturated) / ΔG (apo): free energy corresponding to estimated Kd, 22 °C; for Fold Change = (Kd, Apo)/(Kd, Ca^2+): apo vs calcium-saturated; for abundance of the apo CaM-peptide complex: calculated, start of calcium titration, 6 μM CaM76–148 with 2 eq (12 μM) peptide
CaM1–148, sites I and II = type: binding, mammalian; conditions: for increase in calcium-binding affinity (more favorable than without peptide) / ΔΔG2^app = ΔG2^app(CaM + Peptide) − ΔG2 (CaM Alone): 2 eq peptide, sites I and II
CaM1–80, sites I and II = type: binding, mammalian; conditions: 2 eq peptide
[2] = system: CaM1–148, sites III and IV; type: binding, mammalian; conditions: for increase in calcium-binding affinity (more favorable than without peptide) / ΔΔG2^app = ΔG2^app(CaM + Peptide) − ΔG2 (CaM Alone): 2 eq peptide, sites III and IV; for effect of N-domain on calcium-binding affinity of the C-domain: CaM1–148 vs CaM76–148, with 2 eq peptide
[3] = system: CaM76–148, sites III and IV; type: binding, mammalian; conditions: for increase in calcium-binding affinity (more favorable than without peptide) / ΔΔG2^app = ΔG2^app(CaM + Peptide) − ΔG2 (CaM Alone): 2 eq peptide
full-length CaM = conditions: absence of magnesium, ref [46]; cited from earlier work
[4] = CaM1–148 with 2 eq peptide (Fig. 5A)

Row | Substance | ΔG (calcium-saturated) [1] | Fold Change = (Kd, Apo)/(Kd, Ca^2+) [1] | ΔG (apo) [1] | abundance of the apo CaM-peptide complex [1] | ΔG (calcium-saturated) (CaM1–80 (CaM N-domain)) | Fold Change = (Kd, Apo)/(Kd, Ca^2+) (CaM1–80 (CaM N-domain)) | ΔG (apo) (CaM1–80 (CaM N-domain); apo) | abundance of the apo CaM-peptide complex (CaM1–80 (CaM N-domain)) | ΔG (calcium-saturated) (CaM76–148 (CaM C-domain)) | Fold Change = (Kd, Apo)/(Kd, Ca^2+) (CaM76–148 (CaM C-domain)) | ΔG (apo) (CaM76–148 (CaM C-domain)) | abundance of the apo CaM-peptide complex (CaM76–148 (CaM C-domain)) | increase in calcium-binding affinity (more favorable than without peptide) (CaM1–148, sites I and II) | ΔΔG2^app = ΔG2^app(CaM + Peptide) − ΔG2 (CaM Alone) (CaM1–148, sites I and II) | increase in calcium-binding affinity (more favorable than without peptide) (CaM1–80, sites I and II) | ΔΔG2^app = ΔG2^app(CaM + Peptide) − ΔG2 (CaM Alone) (CaM1–80, sites I and II) | increase in calcium-binding affinity (more favorable than without peptide) [2] | ΔΔG2^app = ΔG2^app(CaM + Peptide) − ΔG2 (CaM Alone) [2] | effect of N-domain on calcium-binding affinity of the C-domain [2] | increase in calcium-binding affinity (more favorable than without peptide) [3] | further results
1 | Ac-KSKKAVWHKLLSKQRRRAVVACFRMTPLYN-NH2 [hRyR1(3614–3643)p] | -12.15 kcal/mol | ~7000 | -7.02 ± 0.25 kcal/mol | ~ 64% | -7.59 ± 0.22 kcal/mol | ~600 | -3.81 kcal/mol | ~ 1% | -10.80 kcal/mol | ~2500 | -6.22 ± 0.10 kcal/mol | ~ 33% | 3.78 ± 0.20 kcal/mol | -3.78 ± 0.18 kcal/mol | 2.62 ± 0.11 kcal/mol | -2.62 ± 0.11 kcal/mol | 3.83 ± 0.14 kcal/mol | -3.83 ± 0.14 kcal/mol | no significant effect | 3.41 ± 0.14 kcal/mol | Kd [1]: ≤ 1 nM; binding in words ([1]; apo (absence of calcium)): low micromolar Kd; binding in words ([1]; high calcium concentrations): sub-nanomolar Kd; weaker binding of CaM1–80 than CaM1–148 and CaM76–148 (fold) (CaM1–80 (CaM N-domain); abstract, CaM1–80 required calcium): ~ 250 fold; affinity less favorable than that of apo CaM1–148 (factor) (CaM1–80 (CaM N-domain); apo): 220; calcium dependence of interaction in words (CaM1–80 (CaM N-domain); apo and calcium-saturated): requires calcium for association; affinity higher than for hRyR1(1975–1999)p (fold) (CaM1–80 (CaM N-domain); calcium-saturated N-domain): approximately 5 fold; ΔΔG (hRyR1(3614–3643)p − hRyR1(1975–1999)p) (CaM1–80 (CaM N-domain); calcium-saturated N-domain): -0.97 ± 0.24 kcal/mol; Kd (CaM76–148 (CaM C-domain)): ≤ 10 nM; binds (Ca^2+)2-CaMC more favorably than apo CaMC (CaM76–148 (CaM C-domain); (Ca^2+)2-CaMC vs apo CaMC): ~ 5 kcal/mol; calcium dependence of interaction in words (CaM76–148 (CaM C-domain); apo and calcium-saturated): calcium-independent manner; C-domain fragment affinity more favorable than N-domain fragment (CaM76–148 (CaM C-domain); both in the presence and in the absence of calcium): 2 orders of magnitude; ΔΔG (hRyR1(3614–3643)p − hRyR1(1975–1999)p) (CaM76–148 (CaM C-domain); calcium-saturated C-domain): ≤ -4.00 kcal/mol; ΔΔG2^app = ΔG2^app(CaM + Peptide) − ΔG2 (CaM Alone) (CaM1–148, sites I and II; listed as 3614): -3.78 ± 0.20 kcal/mol; effect of the presence of the C-domain on calcium-binding free energy of sites I and II (more favorable by) (CaM1–148, sites I and II; CaM1–148 vs CaM1–80, with 2 eq peptide): 1.16 ± 0.25 kcal/mol; midpoint of calcium titration, N-domain (CaM1–148, sites I and II; [4]): ~ 1 μM; midpoint of calcium titration, C-domain [2, 4]: ~ 100 nM; ΔΔG2^app = ΔG2^app(CaM + Peptide) − ΔG2 (CaM Alone) [3]: -3.41 ± 0.14 kcal/mol
2 | Ac-SRYGLLIKAFSMTAAETARRTREFR-NH2 [hRyR1(1975–1999)p] | -8.34 ± 0.01 kcal/mol | ~1300 | -4.14 kcal/mol | < 2% | -6.62 ± 0.09 kcal/mol | ~600 | -2.91 kcal/mol | < 2% | -6.80 ± 0.05 kcal/mol | ~70 | -4.30 kcal/mol | < 2% | 2.10 ± 0.29 kcal/mol | -2.10 kcal/mol | 0.82 ± 0.15 kcal/mol | -0.82 kcal/mol | 1.09 ± 0.23 kcal/mol | -1.09 ± 0.23 kcal/mol | no significant effect | 0.69 ± 0.09 kcal/mol | saturation of peptide (anisotropy) ([1]; calcium-saturated, at ~100 μM): greater than 85%; saturation of peptide (anisotropy) (CaM1–80 (CaM N-domain); calcium-saturated (10 mM CaCl2), at ~100 μM CaM1–80): greater than 85%; saturation of peptide (anisotropy) (CaM76–148 (CaM C-domain); calcium-saturated, at ~100 μM): greater than 85%; ΔΔG2^app = ΔG2^app(CaM + Peptide) − ΔG2 (CaM Alone) (CaM1–148, sites I and II; listed as 1975): -2.10 ± 0.29 kcal/mol; ΔΔG2^app = ΔG2^app(CaM + Peptide) − ΔG2 (CaM Alone) (CaM1–80, sites I and II; listed as 1975): -0.82 ± 0.15 kcal/mol; ΔΔG2^app = ΔG2^app(CaM + Peptide) − ΔG2 (CaM Alone) [3]: -0.69 ± 0.09 kcal/mol; interaction with apo calmodulin (ITC) in words (full-length CaM): failed to detect an interaction
3 | CaM76–148: CaM C-domain, encompassing residues 76 to 148 | – | – | – | – | – | – | – | – | – | – | – | – | – | – | – | – | – | – | – | – | ΔΔG2 (CaM76–148 vs CaM1–148) ([3]; CaM alone): 0.17 ± 0.04 kcal/mol
